Laboratory results reported in patent US20040241092A1, “Method for determining alleviation of pain in an animal” (priority 2003, published 2004).

Tests used:
Format in all cases: in vivo
[1] = test system: (IL-6 plus IL-6sR)-induced arthritic pain in rat; experiment: IL6 Rat: dose response alleviation of (IL-6 plus IL-6sR)-induced arthritic pain (Method Example 1); conditions: oral dose of 10 mg/kg or greater (1, 3, 10, 30 mg/kg tested) 1 hour before 100 ng hrIL-6 + 300 ng hrIL-6sR; measured 1 hour post injection
Text: (§1) Animals were fed standard rat chow with water available ad libitum.
(§2) Each data point is the mean of three readings of 5 seconds duration.

[2] = test system: (IL-6 plus IL-6sR)-induced arthritic pain in rat; experiment: IL6 Rat: time course of alleviation of (IL-6 plus IL-6sR)-induced arthritic pain (Method Example 2); conditions: 10 mg/kg oral 1 hour before 100 ng hrIL-6 + 300 ng hrIL-6sR; Time 1 and 3 hours post injection
Text: as §1, §2

rat knee joint [3] = experiment: (IL-6)-induced joint pain, hind paw weight bearing differential (Demonstration Example 1); conditions: for change in hind paw weight differential compared to the vehicle control group: male Wistar rats
Method: (§3) It should be appreciated that in all of the below examples, unless indicated otherwise, male Wistar rats (175-200 g) were housed in solid bottom isolator cages, 2-4 rats per cage, with corncob bedding on a 12 hour:12 hour light:dark cycle. Animals were fed standard rat chow with water available ad libitum.
It should be appreciated that in all of the below examples, hind paw weight bearing differentials between the paw of the limb having the control joint (in animals administered test compound vehicle only) and the paw of the limb having the contralateral test joint (in control or inducement animals administered test compound vehicle only and in treatment animals administered test compound dissolved in test compound vehicle) were determined using an incapacitance tester, model 2KG (Linton Instrumentation, Norfolk, United Kingdom). The incapacitance tester has a chamber on top with an outwardly sloping front wall that supports a rat's front limbs, and two weight sensing pads, one for each hind paw, that facilitates this determination. Each data point is the mean of three readings of 5 seconds duration. The hind paw weight bearing differentials were expressed in grams and calculated as the [sum of (the weight in grams placed on the control limb minus the weight in grams placed on the contralateral test limb for each animal in the inducement or treatment animal group)] divided by the number of animals in the inducement or treatment animal group. […] All results were statistically analyzed by comparing the average results for an induction or treatment group with the average result for its control group at the same time point using analysis of covariance (“ANCOVA”) followed by the Hochberg's procedure and those with statistical significance had ρ<0.05 unless otherwise noted.
It should also be appreciated that the IL-6 and IL-6sR used as described in all of the below examples was the commercially available recombinant human IL-6 and recombinant human IL-6sR purchased from R&D Systems, Minneapolis, Minn.
It should also be appreciated that prior to injection of hrIL-6, hrIL-6sR, or hrIL-6 plus hrIL-6sR in all of the below examples, rats were anesthetized with 5% volume/volume (“v/v”) isoflurane gas until knocked down and maintained with 2% v/v isoflurane. Rats became fully conscious about 5 minutes after isoflurane administration was discontinued.
Hind-paw weight differentials between the right joint and the left joint of male Wistar rats (150 g) were determined for 30 rats with the incapacitance tester. Rats were then randomly divided into five groups of 6 rats each, a control group and four inducement groups. Rats were anesthetized with 5% v/v isoflurane gas until knocked down and maintained with 2% v/v isoflurane gas. At Time 0, each rat was injected with 50 μL of PBS into a control knee. In addition, each rat in the control group was injected with 50 μL of PBS into the contralateral test knee and each rat in each of the four inducement groups was injected with 50 μL of PBS containing 10 ng, 30 ng, 100 ng, or 300 ng, respectively, of hrIL-6. The injections were done through the patellar ligament into the knee joint space. The isoflurane gas was discontinued. At Times 1, 3, and 6 hours, pain in each rat was characterized by measuring hind paw weight bearing differentials with the incapacitance tester, and the results were statistically analyzed.

rat knee joint [4] = experiment: (IL-6)-, (IL-6sR)-, (IL-6 plus IL-6sR)- and (heat inactivated IL-6 plus IL-6sR)-induced joint pain (Demonstration Example 3); conditions: intra-articular in 50 μL PBS, 1 hour post injection
Method: as §3
It should be appreciated that in all of the below examples, hind paw weight bearing differentials between the paw of the limb having the control joint (in animals administered test compound vehicle only) and the paw of the limb having the contralateral test joint (in control or inducement animals administered test compound vehicle only and in treatment animals administered test compound dissolved in test compound vehicle) were determined using an incapacitance tester, model 2KG (Linton Instrumentation, Norfolk, United Kingdom). […] Each data point is the mean of three readings of 5 seconds duration. The hind paw weight bearing differentials were expressed in grams and calculated as the [sum of (the weight in grams placed on the control limb minus the weight in grams placed on the contralateral test limb for each animal in the inducement or treatment animal group)] divided by the number of animals in the inducement or treatment animal group. […]

## CS(=O)(=O)c1ccc(C2=C(c3ccccc3)C(=O)OC2)cc1 [rofecoxib]
[1]
  percent inhibition of a change in hind paw weight distribution, compared to test compound vehicle alone: inhibit pain in a statistically significant manner
[2]
  change in hind paw weight distribution (pain) compared to test compound vehicle alone: reduced pain in a statistically significant manner

## hrIL-6: commercially available recombinant human IL-6 purchased from R&D Systems
Rat knee joint [3]; 10 ng intra-articular in 50 μL PBS, 1, 3, or 6 hours post injection
  change in hind paw weight differential compared to the vehicle control group: did not produce a statistically significant change
Rat knee joint [3]; 30 ng intra-articular in 50 μL PBS, 1 and 3 hours post injection
  change in hind paw weight differential compared to the vehicle control group: statistically significant change
Rat knee joint [3]; 30 ng intra-articular in 50 μL PBS, 6 hours post injection
  change in hind paw weight differential compared to the vehicle control group: non-significant
Rat knee joint [3]; 100 ng intra-articular in 50 μL PBS, 1, 3, and 6 hours post injection
  change in hind paw weight differential compared to the vehicle control group: statistically significant change
Rat knee joint [3]; 300 ng intra-articular in 50 μL PBS, 1, 3, and 6 hours post injection
  change in hind paw weight differential compared to the vehicle control group: statistically significant change
Rat knee joint [3]; hrIL-6 only, rat knee joint
  amount that will induce pain in the joint on intra-articular injection: more than 10 ng
Rat knee joint [4]; 100 ng alone
  induction of pain in the joint (hind paw weight distribution): will induce pain

B1: hrIL-6sR: commercially available recombinant human IL-6sR (interleukin-6 soluble receptor) purchased from R&D Systems (protein, UniProt P08887 20-365, looked up)
extracellular domain: LAPRRCPAQEVARGVLTSLPGDSVTLTCPGVEPEDNATVHWVLRKPAAGSHPSRWAGMGRRLLLRSVQLHDSGNYSCYRAGRPAGTVHLLVDVPPEEPQLSCFRKSPLSNVVCEWGPRSTPSLTTKAVLLVRKFQNSPAEDFQEPCQYSQESQKFSCQLAVPEGDSSFYIVSMCVASSVGSKFSKTQTFQGCGILQPDPPANITVTAVARNPRWLSVTWQDPHSWNSSFYRLRFELRYRAERSKTFTTWMVKDLQHHCVIHDAWSGLRHVVQLRAQEEFGQGEWSEWSPEAMGTPWTESRSPPAENEVSTPMQALTTNKDDDNILFRDSANATSLPVQDSSSVPLP
modifications: extracellular domain
notes: commercially available recombinant human IL-6sR (interleukin-6 soluble receptor) purchased from R&D Systems
Rat knee joint [4]; 300 ng alone
  induction of pain in the joint (hind paw weight distribution): will induce pain
